From patent publication US8853230B2, “Inhibitors of JAK” (Portola Pharmaceuticals, Inc., priority 2009, dated 2014)
pIC50: −log10 of the molar value. Values belong to the molecule of their own block, whether it stands above or below them.

Tests used:
Type in all cases: biochemical
[1] = target: T1, JAK1 (Homo sapiens, UniProt P23458); assay: Z'-LYTE kinase assay, JAK1 tyrosine phosphorylation activity; conditions: read-out: JAK 1 IC50
T1 construct: 5 μl of catalytic domain recombinant Kinase enzyme+Tyr peptide substrate (Invitrogen, Calif.); purchased Invitrogen
T1 sequence (P23458 875-1153 limits assumed): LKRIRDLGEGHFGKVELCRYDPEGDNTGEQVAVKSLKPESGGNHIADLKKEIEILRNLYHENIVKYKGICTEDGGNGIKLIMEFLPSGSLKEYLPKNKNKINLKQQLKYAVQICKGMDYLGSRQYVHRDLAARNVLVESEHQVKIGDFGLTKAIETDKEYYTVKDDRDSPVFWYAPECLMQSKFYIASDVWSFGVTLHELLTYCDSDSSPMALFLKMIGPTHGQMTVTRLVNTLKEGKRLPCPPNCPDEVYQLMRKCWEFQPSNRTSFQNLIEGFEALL
Method in brief: (§1)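 FRET read-out (ex 400 nm, em 445 and 520 nm) after protease cleavage of non-phosphorylated Tyr6 peptide. Kinase step: catalytic-domain enzyme, peptide, ATP and compound, 1 h at RT, 1% DMSO. IC50 from a 4-parameter logistic fit of percent phosphorylation versus uninhibited control.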

[2] = target: T2, JAK3 (Homo sapiens, UniProt P52333); assay: Z'-LYTE kinase assay, JAK3 tyrosine phosphorylation activity
T2 construct: 5 μl of catalytic domain recombinant Kinase enzyme+Tyr peptide substrate (Invitrogen, Calif.); purchased Invitrogen
T2 sequence (P52333 822-1111 limits assumed): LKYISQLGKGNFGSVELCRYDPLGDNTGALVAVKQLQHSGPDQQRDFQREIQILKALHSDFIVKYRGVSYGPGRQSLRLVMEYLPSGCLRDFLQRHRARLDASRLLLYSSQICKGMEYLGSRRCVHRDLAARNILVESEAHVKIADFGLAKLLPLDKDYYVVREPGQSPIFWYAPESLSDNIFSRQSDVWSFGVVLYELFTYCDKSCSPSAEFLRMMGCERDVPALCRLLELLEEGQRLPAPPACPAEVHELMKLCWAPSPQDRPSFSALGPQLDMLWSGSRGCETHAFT
Method in brief: as §1

[3] = target: Syk (Homo sapiens, UniProt P43405); assay: Syk IC50 (Table 1; method not given)
[4] = target: T3, TYK2 (Homo sapiens, UniProt P29597); assay: Z'-LYTE kinase assay, TYK2 tyrosine phosphorylation activity
T3 construct: 5 μl of catalytic domain recombinant Kinase enzyme+Tyr peptide substrate (Invitrogen, Calif.); purchased Invitrogen
T3 sequence (P29597 897-1176 limits assumed): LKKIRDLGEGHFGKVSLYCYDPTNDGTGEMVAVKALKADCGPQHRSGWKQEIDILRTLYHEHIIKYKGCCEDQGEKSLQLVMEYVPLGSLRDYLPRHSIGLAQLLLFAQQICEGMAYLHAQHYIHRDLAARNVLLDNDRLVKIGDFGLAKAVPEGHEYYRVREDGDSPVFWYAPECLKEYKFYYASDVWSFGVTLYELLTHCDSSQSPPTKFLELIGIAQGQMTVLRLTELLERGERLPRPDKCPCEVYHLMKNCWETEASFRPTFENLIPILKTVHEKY
Method in brief: as §1

[5] = target: T4, JAK2 (Homo sapiens, UniProt O60674); assay: Z'-LYTE kinase assay, JAK2 tyrosine phosphorylation activity
T4 construct: 5 μl of catalytic domain recombinant Kinase enzyme+Tyr peptide substrate (Invitrogen, Calif.); purchased Invitrogen
T4 sequence (O60674 849-1124 limits assumed): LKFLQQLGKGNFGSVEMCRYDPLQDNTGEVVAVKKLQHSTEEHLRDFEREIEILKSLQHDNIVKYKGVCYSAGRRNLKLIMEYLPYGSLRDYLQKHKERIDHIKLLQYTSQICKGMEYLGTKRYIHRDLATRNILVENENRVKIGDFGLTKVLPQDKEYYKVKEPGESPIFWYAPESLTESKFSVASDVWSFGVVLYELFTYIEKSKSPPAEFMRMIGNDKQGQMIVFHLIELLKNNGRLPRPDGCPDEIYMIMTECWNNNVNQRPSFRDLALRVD
Method in brief: as §1

Compound: CC(=O)Nc1cccc(Nc2ncc(C(N)=O)c(NCCN3CCCC3)n2)c1 [Example 63, 2-(3-acetamidophenylamino)-4-(2-(pyrrolidin-1-yl)ethylamino)pyrimidine-5-carboxamide]
pIC50 [1]: < 6.00
pIC50 [2]: 6.00 to 7.00
pIC50 [3]: < 6.00
pIC50 [5]: < 6.00

Compound: CC(=O)Nc1cccc(Nc2ncc(C(N)=O)c(N[C@@H](C)c3ccccc3)n2)c1 [Example 64, (S)-2-(3-acetamidophenylamino)-4-(1-phenylethylamino)pyrimidine-5-carboxamide]
pIC50 [1]: 6.00 to 7.00
pIC50 [2]: 7.00 to 8.00
pIC50 [3]: < 6.00
pIC50 [5]: 6.00 to 7.00

Compound: CC(=O)Nc1cccc(Nc2ncc(C(N)=O)c(NCC(=O)N3CCCC3)n2)c1 [Example 65, 2-(3-acetamidophenylamino)-4-(2-oxo-2-(pyrrolidin-1-yl)ethylamino)pyrimidine-5-carboxamide]
pIC50 [1]: < 6.00
pIC50 [2]: 7.00 to 8.00
pIC50 [3]: < 6.00
pIC50 [4]: 7.00 to 8.00
pIC50 [5]: 6.00 to 7.00

Compound: CC(=O)Nc1cccc(Nc2ncc(C(N)=O)c(N[C@@H]3CCCNC3)n2)c1 [Example 66, (R)-2-(3-acetamidophenylamino)-4-(piperidin-3-ylamino)pyrimidine-5-carboxamide]
pIC50 [1]: 6.00 to 7.00
pIC50 [2]: 6.00 to 7.00
pIC50 [3]: < 6.00
pIC50 [4]: 6.00 to 7.00
pIC50 [5]: 6.00 to 7.00

Compound: CC(=O)Nc1cccc(Nc2ncc(C(N)=O)c(NCc3ccc(C)cc3)n2)c1 [Example 67, 2-(3-acetamidophenylamino)-4-(4-methylbenzylamino)pyrimidine-5-carboxamide]
pIC50 [1]: 6.00 to 7.00
pIC50 [2]: 7.00 to 8.00
pIC50 [3]: < 6.00
pIC50 [5]: 6.00 to 7.00

Compound: COc1ccc(CNc2nc(Nc3cccc(NC(C)=O)c3)ncc2C(N)=O)cc1 [Example 68, 2-(3-acetamidophenylamino)-4-(4-methoxybenzylamino)pyrimidine-5-carboxamide]
pIC50 [1]: 6.00 to 7.00
pIC50 [2]: 7.00 to 8.00
pIC50 [3]: < 6.00
pIC50 [5]: 6.00 to 7.00

Compound: CC(=O)Nc1cccc(Nc2ncc(C(N)=O)c(NCc3ccc(Cl)cc3)n2)c1 [Example 69, 2-(3-acetamidophenylamino)-4-(4-chlorobenzylamino)pyrimidine-5-carboxamide]
pIC50 [1]: 6.00 to 7.00
pIC50 [2]: 7.00 to 8.00
pIC50 [3]: < 6.00
pIC50 [5]: 6.00 to 7.00

Compound: CC(=O)Nc1cccc(Nc2ncc(C(N)=O)c(NCc3ccc(Cl)c(Cl)c3)n2)c1 [Example 70, 2-(3-acetamidophenylamino)-4-(3,4-dichlorobenzylamino)pyrimidine-5-carboxamide]
pIC50 [1]: < 6.00
pIC50 [2]: 6.00 to 7.00
pIC50 [3]: < 6.00
pIC50 [5]: 6.00 to 7.00

Compound: CC(=O)Nc1cccc(Nc2ncc(C(N)=O)c(N[C@H](C)c3ccccc3)n2)c1 [Example 71, (R)-2-(3-acetamidophenylamino)-4-(1-phenylethylamino)pyrimidine-5-carboxamide]
pIC50 [1]: 6.00 to 7.00
pIC50 [2]: 8.00 to 9.00
pIC50 [3]: < 6.00
pIC50 [5]: 7.00 to 8.00

Compound: CNC(=O)CNc1nc(Nc2cccc(NC(C)=O)c2)ncc1C(N)=O [Example 72, 2-(3-acetamidophenylamino)-4-(2-(methylamino)-2-oxoethylamino)pyrimidine-5-carboxamide]
pIC50 [1]: 6.00 to 7.00
pIC50 [2]: 7.00 to 8.00
pIC50 [3]: < 6.00
pIC50 [5]: 6.00 to 7.00

Compound: CC(=O)Nc1cccc(Nc2ncc(C(N)=O)c(N[C@H](CO)Cc3ccccc3)n2)c1 [Example 76, (S)-2-(3-acetamidophenylamino)-4-(1-hydroxy-3-phenylpropan-2-ylamino)pyrimidine-5-carboxamide]
pIC50 [1]: 6.00 to 7.00
pIC50 [2]: 7.00 to 8.00
pIC50 [3]: < 6.00
pIC50 [4]: 7.00 to 8.00
pIC50 [5]: 7.00 to 8.00

Compound: CC(=O)N(C)c1cccc(Nc2ncc(C(N)=O)c(NC(C)C)n2)c1 [Example 77, 4-(isopropylamino)-2-(3-(N-methylacetamido)phenylamino)pyrimidine-5-carboxamide]
pIC50 [1]: 6.00 to 7.00
pIC50 [2]: 7.00 to 8.00
pIC50 [3]: < 6.00
pIC50 [4]: 7.00 to 8.00
pIC50 [5]: 7.00 to 8.00

Compound: CC(=O)Nc1cccc(Nc2ncc(C(N)=O)c(NCCN3CCOCC3)n2)c1 [Example 80, 2-(3-acetamidophenylamino)-4-(2-morpholinoethylamino)pyrimidine-5-carboxamide]
pIC50 [1]: 6.00 to 7.00
pIC50 [2]: 7.00 to 8.00
pIC50 [3]: < 6.00
pIC50 [4]: 7.00 to 8.00
pIC50 [5]: 6.00 to 7.00

Compound: CC(=O)Nc1cccc(Nc2ncc(C(N)=O)c(NC[C@H](C)c3ccccc3)n2)c1 [Example 81, (R)-2-(3-acetamidophenylamino)-4-(2-phenylpropylamino)pyrimidine-5-carboxamide]
pIC50 [1]: 6.00 to 7.00
pIC50 [2]: 7.00 to 8.00
pIC50 [3]: < 6.00
pIC50 [4]: 7.00 to 8.00
pIC50 [5]: 7.00 to 8.00

Compound: NC(=O)c1cnc(Nc2ccc(F)c(NC(=O)N3CCC3)c2)cc1NCc1cccc(F)c1 [Example 305, 6-(3-(azetidine-1-carboxamido)-4-fluorophenylamino)-4-(3-fluorobenzylamino)nicotinamide]
pIC50 [1]: 6.00 to 7.00
pIC50 [2]: 8.00 to 9.00
pIC50 [3]: < 6.00
pIC50 [5]: 6.00 to 7.00

Compound: CN(C)[C@@H]1CCN(C(=O)Nc2cccc(Nc3cc(NCc4cccc(F)c4)c(C(N)=O)cn3)c2)C1 [Example 306, (R)-6-(3-(3-(dimethylamino)pyrrolidine-1-carboxamido)phenylamino)-4-(3-fluorobenzylamino)nicotinamide]
pIC50 [1]: 6.00 to 7.00
pIC50 [2]: > 9.00
pIC50 [3]: < 6.00
pIC50 [5]: 7.00 to 8.00

Further lines, results first:

pIC50 [1]: 7.00 to 8.00
pIC50 [2]: 7.00 to 8.00
pIC50 [3]: 6.00 to 7.00
pIC50 [4]: 7.00 to 8.00
pIC50 [5]: 7.00 to 8.00
Compound: COC(=O)Nc1cccc(Nc2ncc(C(N)=O)c(NCC(F)(F)F)n2)c1 [Example 4, Methyl 3-(5-carbamoyl-4-(2,2,2-trifluoroethylamino)pyrimidin-2-ylamino)phenylcarbamate]

pIC50 [1]: 6.00 to 7.00
pIC50 [2]: 7.00 to 8.00
pIC50 [3]: 6.00 to 7.00
pIC50 [4]: 7.00 to 8.00
pIC50 [5]: 6.00 to 7.00
Compound: NC(=O)c1cnc(Nc2cccc(NC(=O)C3CC3)c2)nc1NCC(F)(F)F [Example 5, 2-(3-(cyclopropanecarboxamido)phenylamino)-4-(2,2,2-trifluoroethylamino)pyrimidine-5-carboxamide]

pIC50 [1]: 7.00 to 8.00
pIC50 [2]: 7.00 to 8.00
pIC50 [3]: 6.00 to 7.00
pIC50 [4]: 7.00 to 8.00
pIC50 [5]: 7.00 to 8.00
Compound: COCC(=O)Nc1cccc(Nc2ncc(C(N)=O)c(NCC(F)(F)F)n2)c1 [Example 6, 2-(3-(2-methoxyacetamido)phenylamino)-4-(2,2,2-trifluoroethylamino)pyrimidine-5-carboxamide]

pIC50 [1]: 7.00 to 8.00
pIC50 [2]: 8.00 to 9.00
pIC50 [3]: 6.00 to 7.00
pIC50 [4]: 8.00 to 9.00
pIC50 [5]: 7.00 to 8.00
Compound: CC(=O)Nc1cccc(Nc2ncc(C(N)=O)c(NCC(F)(F)F)n2)c1 [Example 7, 2-(3-acetamidophenylamino)-4-(2,2,2-trifluoroethylamino)pyrimidine-5-carboxamide]

pIC50 [1]: 7.00 to 8.00
pIC50 [2]: 8.00 to 9.00
pIC50 [3]: < 6.00
pIC50 [4]: 8.00 to 9.00
pIC50 [5]: 7.00 to 8.00
Compound: NC(=O)c1cnc(Nc2cccc(NC(=O)N3CCCC3)c2)nc1NC1CCCC1 [Example 37, 4-(cyclopentylamino)-2-(3-(pyrrolidine-1-carboxamido)phenylamino)pyrimidine-5-carboxamide]

pIC50 [1]: 7.00 to 8.00
pIC50 [2]: 8.00 to 9.00
pIC50 [3]: 6.00 to 7.00
pIC50 [5]: 7.00 to 8.00
Compound: CC(=O)Nc1cccc(Nc2ncc(C(N)=O)c(NCc3c(F)ccc(F)c3F)n2)c1 [Example 59, 2-(3-acetamidophenylamino)-4-(2,3,6-trifluorobenzylamino)pyrimidine-5-carboxamide]

pIC50 [1]: 7.00 to 8.00
pIC50 [2]: 7.00 to 8.00
pIC50 [3]: < 6.00
pIC50 [5]: 6.00 to 7.00
Compound: CC(=O)Nc1cccc(Nc2ncc(C(N)=O)c(NCCC(N)=O)n2)c1 [Example 61, 2-(3-acetamidophenylamino)-4-(3-amino-3-oxopropylamino)pyrimidine-5-carboxamide]

pIC50 [1]: 7.00 to 8.00
pIC50 [2]: 7.00 to 8.00
pIC50 [3]: < 6.00
pIC50 [5]: 6.00 to 7.00
Compound: CC(=O)Nc1cccc(Nc2ncc(C(N)=O)c(N[C@@H](CO)CC(C)C)n2)c1 [Example 62, (R)-2-(3-acetamidophenylamino)-4-(1-hydroxy-4-methylpentan-2-ylamino)pyrimidine-5-carboxamide]

pIC50 [1]: 7.00 to 8.00
pIC50 [2]: 7.00 to 8.00
pIC50 [3]: 6.00 to 7.00
pIC50 [5]: 7.00 to 8.00
Compound: CC(=O)Nc1cccc(Nc2ncc(C(N)=O)c(NCC#N)n2)c1 [Example 74, 2-(3-acetamidophenylamino)-4-(cyanomethylamino)pyrimidine-5-carboxamide]

pIC50 [1]: 7.00 to 8.00
pIC50 [2]: 8.00 to 9.00
pIC50 [3]: < 6.00
pIC50 [4]: 7.00 to 8.00
pIC50 [5]: 8.00 to 9.00
Compound: CC(=O)N(C)c1cccc(Nc2ncc(C(N)=O)c(NC3CCCC3)n2)c1 [Example 78, 4-(cyclopentylamino)-2-(3-(N-methylacetamido)phenylamino)pyrimidine-5-carboxamide]

pIC50 [1]: 7.00 to 8.00
pIC50 [2]: 8.00 to 9.00
pIC50 [3]: < 6.00
pIC50 [4]: 7.00 to 8.00
pIC50 [5]: 7.00 to 8.00
Compound: CC(=O)N(C)c1cccc(Nc2ncc(C(N)=O)c(NCc3ccccc3)n2)c1 [Example 79, 4-(benzylamino)-2-(3-(N-methylacetamido)phenylamino)pyrimidine-5-carboxamide]
